# ChEMBL document CHEMBL5335843, “Application of tobramycin benzyl ether as an antibiotic adjuvant capable of sensitizing multidrug-resistant Gram-negative bacteria to rifampicin” (2024)
# Key:
# [1] = tested on: Enterobacterales; experiment: Antibiotic adjuvant activity against Enterobacterales assessed as minocycline MIC incubated for 18 hrs in presence of minocycline by two fold broth microdilution checkerboard assay; type: functional
# [2] = tested on: Acinetobacter baumannii; experiment: Antibiotic adjuvant activity against multi-drug resistant Acinetobacter baumannii clinical isolate AB027 assessed as inhibition of bacterial growth incubated for 18 hrs in presence of Rifampicin by two fold broth microdilution checkerboard assay; type: functional
# [3] = tested on: Pseudomonas aeruginosa; experiment: Antibiotic adjuvant activity against multi-drug resistant Pseudomonas aeruginosa clinical isolate PA101243 assessed as minocycline MIC incubated for 18 hrs in presence of minocycline by two fold broth microdilution checkerboard assay; type: functional
# [4] = tested on: Acinetobacter baumannii; experiment: Antibacterial activity against multi-drug resistant Acinetobacter baumannii clinical isolate AB027 assessed as inhibition of bacterial growth incubated for 18 hrs by two fold broth microdilution assay; type: functional
# [5] = tested on: Escherichia coli; experiment: Antibiotic adjuvant activity against multi-drug resistant Escherichia coli clinical isolate EC94474 assessed as inhibition of bacterial growth incubated for 18 hrs in presence of minocycline by two fold broth microdilution checkerboard assay; type: functional
# [6] = tested on: Acinetobacter baumannii; experiment: Antibiotic adjuvant activity against Acinetobacter baumannii ATCC 17978 assessed as fold potentiation at 16 ug/ml incubated for 18 hrs in presence of rifampicin and 25 % FBS media by two fold broth microdilution checkerboard assay; type: functional; conditions: dose 16 µg/ml
# [7] = tested on: Cell membrane; experiment: Induction of outer membrane permeabilization in Escherichia coli ATCC 25922 assessed as increase fluorescence intensity by measuring NPN uptake factor by fluorescence based analysis; type: subcellular
# [8] = tested on: Acinetobacter baumannii; experiment: Antibacterial activity against multi-drug resistant Acinetobacter baumannii clinical isolate LAC-4 assessed as inhibition of bacterial growth incubated for 18 hrs by two fold broth microdilution assay; type: functional
# [9] = tested on: Escherichia coli; experiment: Antibiotic adjuvant activity against multi-drug resistant Escherichia coli clinical isolate 107115 assessed as fractional inhibitory concentration index incubated for 18 hrs in presence of Rifampicin by two fold broth microdilution checkerboard assay; type: functional
# [10] = tested on: Pseudomonas aeruginosa; experiment: Antibiotic adjuvant activity against multi-drug resistant Pseudomonas aeruginosa clinical isolate PA264 assessed as minocycline MIC incubated for 18 hrs in presence of minocycline by two fold broth microdilution checkerboard assay; type: functional
# [11] = tested on: Enterococcus faecium; experiment: Antibacterial activity against Enterococcus faecium 114278 assessed as inhibition of bacterial growth incubated for 18 hrs by two fold broth microdilution assay; type: functional
# [12] = tested on: Escherichia coli; experiment: Antibiotic adjuvant activity against multi-drug resistant Escherichia coli clinical isolate EC107115 assessed as inhibition of bacterial growth incubated for 18 hrs in presence of minocycline by two fold broth microdilution checkerboard assay; type: functional
# [13] = tested on: Escherichia coli; experiment: Antibiotic adjuvant activity against multi-drug resistant Escherichia coli clinical isolate EC94474 assessed as fold potentiation incubated for 18 hrs in presence of minocycline by two fold broth microdilution checkerboard assay; type: functional
# [14] = tested on: Acinetobacter baumannii; experiment: Antibacterial activity against multi-drug resistant Acinetobacter baumannii clinical isolate AB031 assessed as inhibition of bacterial growth incubated for 18 hrs by two fold broth microdilution assay; type: functional
# [15] = tested on: Escherichia coli; experiment: Antibiotic adjuvant activity against multi-drug resistant Escherichia coli clinical isolate EC94474 assessed as minocycline MIC incubated for 18 hrs in presence of minocycline by two fold broth microdilution checkerboard assay; type: functional
# [16] = tested on: Escherichia coli; experiment: Antibiotic adjuvant activity against Escherichia coli ATCC 25922 assessed as rifampicin MIC incubated for 18 hrs in presence of Rifampicin by two fold broth microdilution checkerboard assay; type: functional
# [17] = tested on: Acinetobacter baumannii; experiment: Antibiotic adjuvant activity against Acinetobacter baumannii ATCC 17978 assessed as fold potentiation incubated for 18 hrs in presence of novobiocin by two fold broth microdilution checkerboard assay; type: functional
# [18] = tested on: Pseudomonas aeruginosa; experiment: Antibiotic adjuvant activity against multi-drug resistant Pseudomonas aeruginosa clinical isolate PA264 assessed as rifampicin MIC incubated for 18 hrs in presence of Rifampicin by two fold broth microdilution checkerboard assay; type: functional
# [19] = tested on: Pseudomonas aeruginosa; experiment: Antibiotic adjuvant activity against Pseudomonas aeruginosa PAO1 assessed as fold potentiation incubated for 18 hrs in presence of doxycycline by two fold broth microdilution checkerboard assay; type: functional
# [20] = tested on: Pseudomonas aeruginosa; experiment: Antibiotic adjuvant activity against multi-drug resistant Pseudomonas aeruginosa clinical isolate PA264 assessed as inhibition of bacterial growth incubated for 18 hrs in presence of doxycycline by two fold broth microdilution checkerboard assay; type: functional
# [21] = tested on: Pseudomonas aeruginosa; experiment: Antibiotic adjuvant activity against multi-drug resistant Pseudomonas aeruginosa clinical isolate PA264 assessed as inhibition of bacterial growth incubated for 18 hrs in presence of minocycline by two fold broth microdilution checkerboard assay; type: functional
# [22] = tested on: Acinetobacter baumannii; experiment: Antibiotic adjuvant activity against Acinetobacter baumannii ATCC 17978 assessed as fold potentiation incubated for 18 hrs in presence of rifampicin and FBS media by two fold broth microdilution checkerboard assay; type: functional
# [23] = tested on: Pseudomonas aeruginosa; experiment: Antibiotic adjuvant activity against multi-drug resistant Pseudomonas aeruginosa clinical isolate PA101243 assessed as doxycycline MIC incubated for 18 hrs in presence of doxycycline by two fold broth microdilution checkerboard assay; type: functional
# [24] = tested on: Pseudomonas aeruginosa; experiment: Antibiotic adjuvant activity against multi-drug resistant Pseudomonas aeruginosa clinical isolate PA262 assessed as fold potentiation incubated for 18 hrs in presence of doxycycline by two fold broth microdilution checkerboard assay; type: functional
# [25] = tested on: Enterococcus faecium; experiment: Antibiotic adjuvant activity against Enterococcus faecium 128149 assessed as inhibition of bacterial growth incubated for 18 hrs in presence of rifampicin by two fold broth microdilution checkerboard assay; type: functional
# [26] = tested on: Pseudomonas aeruginosa; experiment: Antibiotic adjuvant activity against Pseudomonas aeruginosa PAO1 assessed as fold potentiation incubated for 18 hrs in presence of minocycline by two fold broth microdilution checkerboard assay; type: functional
# [27] = tested on: Pseudomonas aeruginosa; experiment: Antibiotic adjuvant activity against multi-drug resistant Pseudomonas aeruginosa clinical isolate PA264 assessed as fold potentiation incubated for 18 hrs in presence of Rifampicin by two fold broth microdilution checkerboard assay; type: functional
# [28] = tested on: Acinetobacter baumannii; experiment: Antibiotic adjuvant activity against multi-drug resistant Acinetobacter baumannii clinical isolate LAC-4 assessed as fractional inhibitory concentration index incubated for 18 hrs in presence of Rifampicin by two fold broth microdilution checkerboard assay; type: functional
# [29] = tested on: Pseudomonas aeruginosa; experiment: Antibacterial activity against multi-drug resistant Pseudomonas aeruginosa clinical isolate PA264 assessed as inhibition of bacterial growth incubated for 18 hrs by two fold broth microdilution assay; type: functional
smiles,measurement,setting,value
Cl.NC[C@H]1O[C@H](O[C@H]2[C@H](OCc3ccccc3)[C@@H](O[C@H]3O[C@H](COCc4ccccc4)[C@@H](OCc4ccccc4)[C@H](N)[C@H]3OCc3ccccc3)[C@H](N)C[C@@H]2N)[C@H](N)C[C@@H]1OCc1ccccc1,MIC,[1],≤ 4 µg/mL
same,MIC,[2],8 µg/mL
same,MIC,[3],64 µg/mL
same,MIC,[4],64 µg/mL
same,MIC,[5],8 µg/mL
same,fold change (FC),[6],32
same,Activity,[7],Dose-Dependent Effect
same,MIC,[8],16 µg/mL
same,fractional inhibitory concentration index (FICI),[9],0.063
same,MIC,[10],16 µg/mL
same,MIC,[11],8 µg/mL
same,MIC,[12],8 µg/mL
same,fold change (FC),[13],64
same,MIC,[14],32 µg/mL
same,MIC,[15],1 µg/mL
same,MIC,[16],0.008 µg/mL
same,fold change (FC),[17],2048
same,MIC,[18],16 µg/mL
same,fold change (FC),[19],4
same,MIC,[20],8 µg/mL
same,MIC,[21],8 µg/mL
same,fold change (FC),[22],4
same,MIC,[23],> 128 µg/mL
same,fold change (FC),[24],1
same,MIC,[25],8 µg/mL
same,fold change (FC),[26],64
same,fold change (FC),[27],1
same,fractional inhibitory concentration index (FICI),[28],0.251
same,MIC,[29],128 µg/mL
